Data reported in patent US20240091138A1, “TOPICAL C[…]” (EGIS GYÓGYSZERGYÁR ZRT., priority 2021, published 2024).

Experiments:
Solubility of pregabalin = settings: in any solvents
Wistar rats = test: Chronic constriction injury (CCI) rat model of neuropathy, paw withdrawal threshold with electronic von Frey; assay type: in vivo; settings: 16.66 mg/kg
From the text: Furthermore, based on the article Bennett G J, at al (Pain, A peripheral mononeuropathy in rat that produces disorders of pain sensation like those seen in man. 1988 April; 33(1):87-107) we have developed a method for the examination of the compositions of the present invention. Thus, we have examined the compositions according to the present invention also with a different model for measuring the alleviation of the peripheral neuropathic pain also. Namely, we have carried out examinations on rats using Chronic constriction injury (CCI) model. Three weeks following nerve injury rats were assessed for hind paw mechanical withdrawal thresholds. The paw withdrawal threshold (PWT) was determined with an Electronic von Frey device according to the modified up-down method of Dixon (Efficient analysis of experimental observations, Annu Rev Pharmacol Toxicol. 1980; 20:441-62). […] The method and results are shown in example 3 and on FIG. 9.
Thus, the compositions of the present invention are effective in the treatment of neuropathic pain. […]
Briefly, under isoflurane anesthesia small blunt dissection was made into the skin of rat right thigh then three loosely constrictive ligatures were placed around common sciatic nerve (chronic constriction injury CCI). Three weeks following nerve injury rats were assessed for hind paw mechanical withdrawal thresholds. […]

[1] = Pharmacokinetic studies (blood levels of pregabalin); settings: during topical treatment

## CC(C)C[C@H](CN)CC(=O)O [pregabalin]
Solubility of pregabalin
  Solubility: poor
Wistar rats
  reduction of hypersensitivity after oral administration: not able to reduce hypersensitivity
[1]
  amount of pregabalin entering the bloodstream: very small amounts
